Calls of active or inactive are those of the source. The calls are words filed in the database; no cut-off is given here.
How the values were obtained:
Format in all cases: cell-based
HEK293 = test: (§1) Inhibition of NF-kappaB activity in TNF-alpha-induced human HEK293 cells by luciferase assay; details: dose or concentration not given here
[1] = target: NAD(P)H dehydrogenase [quinone] 1 (Mus musculus) (UniProt Q64669); test: Induction of NADPH-dependent quinone reductase activity in mouse Hepa-1c1c7 cells at 28.4 uM after 48 hrs by MTT assay
[2] = target: NAD(P)H dehydrogenase [quinone] 1 (Mus musculus) (UniProt Q64669); test: Induction of NADPH-dependent quinone reductase activity in mouse Hepa-1c1c7 cells assessed as induction ratio at 28.4 uM after 48 hrs by MTT assay relative to DMSO control
[3] = as §1
[4] = target: NAD(P)H dehydrogenase [quinone] 1 (Mus musculus) (UniProt Q64669); test: Induction of NADPH-dependent quinone reductase activity in mouse Hepa-1c1c7 cells assessed as concentration to double activity after 48 hrs by MTT assay

NAD(P)H dehydrogenase [quinone] 1 (Mus musculus), sequence (Q64669 whole entry): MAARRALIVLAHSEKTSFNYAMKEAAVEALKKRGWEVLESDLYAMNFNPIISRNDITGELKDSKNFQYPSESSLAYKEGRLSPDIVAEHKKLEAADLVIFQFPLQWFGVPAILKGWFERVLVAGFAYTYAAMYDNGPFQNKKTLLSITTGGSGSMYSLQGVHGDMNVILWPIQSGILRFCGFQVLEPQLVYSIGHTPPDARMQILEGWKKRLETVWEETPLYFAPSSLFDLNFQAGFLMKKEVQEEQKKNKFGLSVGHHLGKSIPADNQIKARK

Row | SMILES | inhibition (HEK293) [%] | Activity [1] | Ratio [2] | IC50 [3] [nM] | CD [4] [µM]
1 | CN(C)[C@H]1[C@@H](O)[C@@H](O)[C@H](O[C@]23C=CC=C2c2c4ccc(c2Cl)[C@@H](O)COC(=O)C[C@H](N)c2cc(O)c(c(Cl)c2)O[C@H]43)OC1(C)C | 46.5 | inactive |  |  | 
2 | CC(=O)N[C@H]1CC(=O)OC[C@H](O)c2ccc3c(c2Cl)C2=CC=C[C@]2(O[C@@H]2OC(C)(C)[C@@H](N(C)C)[C@@H](O)[C@H]2O)[C@@H]3Oc2c(O)cc1cc2Cl [FIJIOLIDE A] | 70.3 |  | 3.5 | 570 | 1.8
3 | O=c1cc(-c2ccc(Br)cc2)oc2ccccc12 |  |  |  |  | 0.013
